Data taken from US20020169101A1, “Treatment of sexual dysfunction” (priority 1999, published 2002).
Entries after “also recorded” stand apart in the source; their conditions may differ.

How the values were obtained:
[1] = test system: female genital blood flow; assay: Female genital blood flow in the anaesthetised rabbit model of sexual arousal (pelvic nerve stimulation); type: in vivo; conditions: 15 mg/kg sc; for basal genital blood flow in the absence of PNS / pelvic-nerve stimulated (PNS) increases in genital (vaginal and clitoral) blood flow: anaesthetised female rabbit (FIGS. 22, 23)
Procedure: Female New Zealand rabbits (˜2.5kg) were pre-medicated with a combination of Medetomidine (Domitor®) 0.5 ml/kg i.m., and Ketamine (Vetalar®) 0.25 ml/kg im. whilst maintaining oxygen intake via a face mask. The rabbits were tracheotomised using a PortexTM uncuffed endotracheal tube 3 ID., connected to ventilator and maintained at a ventilation rate of 30-40 breaths per minute, with an approximate tidal volume of 18-20 ml, and a maximum airway pressure of 10 cm H2O. Anaesthesia was then switched to Isoflurane and ventilation continued with O2 at 21/min. The right marginal ear vein was cannulated using a 23G or 24G catheter, and Lactated Ringer solution perfused at 0.5 ml/min. The rabbit was maintained at 3% Isoflurane during invasive surgery, dropping to 2% for maintenance anaesthesia.
The left groin area of the rabbit was shaved and a vertical incision was made approximately 5 cm in length along the thigh. The femoral vein and artery were exposed, isolated and then cannulated with a PVC catheter (17G) for the infusion of drugs and compounds. Cannulation was repeated for the femoral artery, inserting the catheter to a depth of 10 cm to ensure that the catheter reached the abdominal aorta. This arterial catheter was linked to a Gould system to record blood pressure. Samples for blood gas analysis were also taken via the arterial catheter. Systolic and diastolic pressures were measured, and the mean arterial pressure calculated using the formula (diastolic x2 +systolic)÷3. Heart rate was measured via the pulse oxymeter and Po-ne-mah data acquisition software system (Ponemah Physiology Platform, Gould Instrument Systems Inc). A ventral midline incision was made into the abdominal cavity. The incision was about 5 cm in length just above the pubis. The fat and muscle was bluntly dissected away to reveal the hypogastric nerve which runs down the body cavity. It was essential to keep close to the side curve of the pubis wall in order to avoid damaging the femoral vein and artery which lie above the pubis. The sciatic and pelvic nerves lie deeper and were located after further dissection on the dorsal side of the rabbit. Once the sciatic nerve is identified, the pelvic nerve was easily located. The term pelvic nerve is loosely applied; anatomy books on the subject fail to identify the nerves in sufficient detail. However, stimulation of the nerve causes an increase in vaginal and clitoral blood flow, and innervation of the pelvic region. The pelvic nerve was freed away from surrounding tissue and a Harvard bipolar stimulating electrode was placed around the nerve. The nerve was slightly lifted to give some tension, then the electrode was secured in position. Approximately 1 ml of light paraffin oil was placed around the nerve and electrode. This acts as a protective lubricant to the nerve and prevents blood contamination of the electrode. The electrode was connected to a Grass S88 Stimulator. The pelvic nerve was stimulated using the following parameters:-5V, pulse width 0.5 ms, duration of stimulus 10 seconds and a frequency range of 2 to 16 Hz. Reproducible responses were obtained when the nerve was stimulated every 15-20 minutes. A frequency response curve was determined at the start of each experiment in order to determine the optimum frequency to use as a sub-maximal response, normally 4 Hz. A ventral midline incision was made, at the caudal end of the pubis, to expose the pubic area. Connective tissue was removed to expose the tunica of the clitoris, ensuring that the wall was free from small blood vessels. The external vaginal wall was also exposed by removing any connective tissue. One laser Doppler flow probe was inserted 3 cm into the vagina, so that half the probe shaft was still visible. A second probe was positioned so that it lay just above the external clitoral wall. The position of these probes was then adjusted until a signal was obtained. A second probe was placed just above the surface of a blood vessel on the external vaginal wall. […]

[2] = test system: penile intracavernosal pressure; assay: Penile intracavernosal pressure in the conscious male rat (telemetry); type: in vivo; conditions: Compound 1 10 mg/kg sc, one hour after, Compound 3 15 mg/kg sc, 45 minutes after, conscious male rat (FIGS. 24, 25)
Procedure: In addition to treating women with FSD, bombesin antagonists will be useful in treating male erectile dysfunction (MED. Both the non-selective BB1/2 antagonists (Compound 1; 10 mg/kg sc) and the selective BB1 receptor antagonist (Compound 3; 15 mg/kg sc) is pro-erectile in a conscious rat model of penile erection (FIGS. 24 and 25). Erectile responses were recorded by measuring intracavemosal pressure using surgically implanted telemetric device. The specific details the surgical procedures, data acquisition and analysis can be found in detail in Bernabe 1999.
Compound 1 and compound 3 were dissolved in 50% β-cyclodextrin in saline. They were administered at a dose of […] subcutaneously (sc). […] These increases equate to penile erection. Both Compounds 1 and 3 induced a number of erections in a similar manner to those observed with apomorphine or melanotan-II—both of which are clinically proven agents that are effective in the treatment of MED. Moreover the amplitude of the increases observed were similar to those observed with apomorphine or melanotan-II. The mechanism of action is thought to be similar to the effects on female genital flow ie CNS potentiation of the descending neuronal pathways that control penile erection.

| SMILES | time after sc dosing at which potentiation was significant [1] [min] | time potentiation remained elevated [1] | basal genital blood flow in the absence of PNS [1] | pelvic-nerve stimulated (PNS) increases in genital (vaginal and clitoral) blood flow [1] | penile intracavernosal pressure / erection [2] | penile intracavernosal pressure / erection ([2]; listed as compound 3) |
| --- | --- | --- | --- | --- | --- | --- |
| C[C@@](Cc1c[nH]c2ccccc12)(NC(=O)Nc1ccc([N+](=O)[O-])cc1)C(=O)NCC1(c2ccc(N)cc2)CCCCC1 [Compound 3, (2S)-N-{[1-(4-aminophenyl)cyclohexyl]methyl}-3-(1H-indol-3-yl)-2-methyl-2-{[(4-nitroanilino)-carbonyl]amino}propanamide] | 45 | circa 1 hr | no effect on basal genital blood flow | potent enhancer of pelvic-nerve stimulated (PNS) increases in vaginal and clitoral blood flow | pro-erectile | significant increases in intracavernosal pressure |
| COc1ccc(C2(CNC(=O)[C@](C)(Cc3c[nH]c4ccccc34)NC(=O)Nc3ccc([N+](=O)[O-])cc3)CCCCC2)nc1 [Compound (1), (S) 3-(1H-Indol-3-yl)-N-[1-(5-methoxy-pyridin-2-yl)-cyclohexyl-methyl]-2-methyl-2-[3-(4-nitro-phenyl)-ureido]-propionamide] |  |  | no effect on basal genital blood flow | potent enhancer of pelvic-nerve stimulated (PNS) increases in genital blood flow | pro-erectile; also recorded: significant increases in intracavernosal pressure |  |
